Results taken from patent US7268224B2, “Human glucocorticoid receptor 1A promoter and splice variants” (Board of Supervisors of Louisianna State University and …, priority 2000, dated 2007).

B1: interferon-γ: interferon used to treat Jurkat cells (protein, UniProt P01579 24-161, looked up)
Interferon gamma: QDPYVKEAENLKKYFNAGHSDVADNGTLFLGILKNWKEESDRKIMQSQIVSFYFKLFKNFKDDQSIQKSVETIKEDMNVKFFNSNKKKRDDFEKLTNYSVTDLNVQRKAIHELIQVMAELSPAAKTGKRKRSQMLFRG

Tests used:
[1] = tested on: GR exon 1 transcripts in CEM-C7 cells; assay: RT-PCR of GR exon 1 transcripts after hormone treatment, CEM-C7; conditions: 1 μM
[2] = tested on: GR 1A3 exon-containing transcripts in CEM-C7 cells; assay: Northern blot of GR exon 1A transcripts after glucocorticoid treatment; assay type: cell-based, human; conditions: 1 μM, data not shown
From the text: Glucocorticoid hormone treatment is known to up-regulate the levels of both GR mRNA and GR protein in immature T-lymphocytes and in some T-lymphoblasts that undergo apoptosis following hormone treatment. See Denton et al., (1993); and L. P. Eisen et al., “Positive Regulation of the Glucocorticoid Receptor in Human T-Cells Sensitive to the Cytolytic Effects of Glucocorticoids,” J. Biol. Chem., vol. 263, pp. 12044-12048 (1988). The human CEM-C7 acute lymphoblastic leukemia (ALL) cell line has served as a model system for glucocorticoid-sensitive human T-cell ALL. See M. R. Norman and E. B. Thompson, “Characterization of a Glucocorticoid-Sensitive Human Lymphoid Cell Line,” Cancer Res., vol. 37, pp. 3785-3791 (1977). CEM-C7 cells were treated with 1 μM dexamethasone (a glucocorticoid analogue) for various periods of time, from 6 hr to 48 hr. RNA was then extracted, and northern blots were prepared and probed with the GR-1A-exon-specific probes (exon 1A1, exon 1A2, and exon 1A3; Table 1). […] Up-regulation of exon 1A1 and exon 1A2 transcripts was also observed (data not shown).

[3] = tested on: hormone-resistant clones of human CEM-C7, T-ALL cells, or mouse SAK8 T-lymphoma cells; conditions: hormone-resistant clones in culture; cited from earlier work
[4] = tested on: IRF-1 and IRF-2 protein levels in Jurkat cells; assay: IRF protein levels in interferon-treated Jurkat cells; assay type: cell-based, human; conditions: data not shown
From the text: By identifying transcription factor binding sites in the 1A promoter and exon, we will determine whether activation of any of these factors will directly activate the hGR 1A promoter. […] See H. Harada et al., “Structurally Similar but Functionally Distinct Factors, IRF-1 and IRF-2, Bind to the Same Regulatory Elements of IFN and IFN-Inducible Genes,” Cell, vol. 58, pp. 729-739 (1989).

Row | exon 1A1 and exon 1A2 transcripts [2] | Molecule | increase in exon 1A3-containing transcripts [1] [fold] | sensitivity to glucocorticoid-mediated killing [3] | IRF-1 protein levels [4] | IRF-2 protein levels [4]
1 | Up-regulation | C[C@@H]1C[C@H]2[C@@H]3CCC4=CC(=O)C=C[C@]4(C)[C@@]3(F)[C@@H](O)C[C@]2(C)[C@@]1(O)C(=O)CO [dexamethasone] | 2.5 |  |  | 
2 |  | Nc1ncn([C@@H]2O[C@H](CO)[C@@H](O)[C@H]2O)c(=O)n1 [5-azacytidine] |  | become stably sensitive to glucocorticoid-mediated killing |  | 
3 |  | interferon-α |  |  | dramatic increase | not IRF-2
4 |  | B1 |  |  | dramatic increase | not IRF-2
